From US10294202B2, “Pyrrolidinones as herbicides” (FMC Corporation, priority 2013, dated 2019)

Assays:
wheat = assay: Test A pre-/postemergence herbicide test; format: in vivo, Triticum aestivum; conditions: Postemergence, 125 g ai/ha; visual rating on 0 to 100 scale (0 no effect, 100 complete control), approx. 10 days
Procedure, shortened: (§1)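 Seeds in loam–sand blend received preemergence directed soil spray; separately, plants 2–10 cm at one- to two-leaf stage received postemergence spray, both with test chemicals in non-phytotoxic solvent with surfactant. After ~10 days in greenhouse, injury rated visually against untreated controls, 0 (no effect) to 100 (complete control).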

corn = assay: Test A pre-/postemergence herbicide test; format: in vivo, Zea mays; conditions: Postemergence
Procedure, shortened: as §1

galium = assay: Test A postemergence herbicide test; format: in vivo, Galium aparine; conditions: 125 g ai/ha, visual rating on 0 to 100 scale (0 no effect, 100 complete control), approx. 10 days
Procedure, shortened: (§2)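 Plants at the one- to two-leaf stage, 2–10 cm tall, grown in loam/sand pots, received postemergence sprays of the test chemicals. After about 10 days in the greenhouse, injury was scored visually against untreated controls on a 0–100 scale (0 none, 100 complete control).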

barnyardgrass [1] = assay: Test A pre-/postemergence herbicide test; format: in vivo, Echinochloa crus-galli
Procedure, shortened: as §1

ryegrass, Italian = assay: Test A pre-/postemergence herbicide test; format: in vivo, Lolium multiflorum; conditions: for Plant response rating, Ryegrass, Italian: 125 g ai/ha; for Ryegrass, Italian plant response rating: 500 g ai/ha
Procedure, shortened: as §1

rice = assay: Test B flooded paddy test; format: in vivo, Oryza sativa; conditions: 500 g ai/ha, Flood; scale of 0 to 100 where 0 is no effect and 100 is complete control
Procedure, shortened: (§3)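 Visual ratings from 0, meaning no effect, up to 100, meaning complete control, were made by comparison with untreated controls 13 to 15 days after treatment. Test compounds went straight into floodwater standing 3 cm over the soil of pots holding 2-leaf seedlings.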

kochia = assay: Test A pre-/postemergence herbicide test; format: in vivo, Kochia scoparia; conditions: for Plant response rating, Kochia: 125 g ai/ha; for Kochia plant response rating: 500 g ai/ha
Procedure, shortened: as §1

ragweed = assay: Test A pre-/postemergence herbicide test; format: in vivo, Ambrosia elatior; conditions: for Plant response rating, Ragweed: 125 g ai/ha; for Ragweed plant response rating: 500 g ai/ha
Procedure, shortened: as §1

sedge, umbrella = assay: Test B flooded paddy test; format: in vivo, Cyperus difformis; conditions: 500 g ai/ha, Flood; scale of 0 to 100 where 0 is no effect and 100 is complete control
Procedure, shortened: as §3

barnyardgrass [2] = assay: Test B flooded paddy test; format: in vivo, Echinochloa crus-galli; conditions: 500 g ai/ha, Flood; scale of 0 to 100 where 0 is no effect and 100 is complete control
Procedure, shortened: as §3

pigweed = assay: Test A pre-/postemergence herbicide test; format: in vivo, Amaranthus retroflexus; conditions: for Plant response rating, Pigweed: 125 g ai/ha; for Pigweed plant response rating: 500 g ai/ha
Procedure, shortened: as §1

giant foxtail = assay: Test A pre-/postemergence herbicide test; format: in vivo, Setaria faberii
Procedure, shortened: as §1

ducksalad = assay: Test B flooded paddy test; format: in vivo, Heteranthera limosa; conditions: 500 g ai/ha, Flood; scale of 0 to 100 where 0 is no effect and 100 is complete control
Procedure, shortened: as §3

blackgrass = assay: Test A postemergence herbicide test; format: in vivo, Alopecurus myosuroides
Procedure, shortened: as §2

[3] = 125 g ai/ha, visual rating on 0 to 100 scale (0 no effect, 100 complete control), approx. 10 days
[4] = 500 g ai/ha, 0 to 100 scale (0 no effect, 100 complete control)
[5] = Postemergence, 125 g ai/ha, visual rating on 0 to 100 scale (0 no effect, 100 complete control), approx. 10 days
[6] = Postemergence, 500 g ai/ha, 0 to 100 scale (0 no effect, 100 complete control)
[7] = Preemergence, 125 g ai/ha, 0 to 100 scale where 0 is no effect and 100 is complete control
[8] = Preemergence, 500 g ai/ha, visual rating on 0 to 100 scale (0 no effect, 100 complete control)
[9] = Postemergence, visual rating on 0 to 100 scale (0 no effect, 100 complete control), approx. 10 days
[10] = Preemergence, 0 to 100 scale where 0 is no effect and 100 is complete control
[11] = Preemergence, visual rating on 0 to 100 scale (0 no effect, 100 complete control)

Structure (SMILES)	Plant response rating, Wheat (wheat)	Plant response rating, Corn (corn; [3])	Plant response rating, Corn (corn; [4])	Plant response rating, Galium (galium)	Plant response rating, Barnyardgrass (barnyardgrass [1]; [5])	Plant response rating, Barnyardgrass (barnyardgrass [1]; [6])	Plant response rating, Barnyardgrass (barnyardgrass [1]; [7])	Barnyardgrass plant response rating (barnyardgrass [1]; [8])	Plant response rating, Ryegrass, Italian (ryegrass, Italian; [9])	Plant response rating, Ryegrass, Italian (ryegrass, Italian; [10])	Ryegrass, Italian plant response rating (ryegrass, Italian; [11])	Plant response rating, Rice (rice)	Plant response rating, Kochia (kochia; [9])	Plant response rating, Kochia (kochia; [10])	Kochia plant response rating (kochia; [11])	Plant response rating, Ragweed (ragweed; [9])	Ragweed plant response rating (ragweed; [11])	Plant response rating, Sedge, Umbrella (sedge, umbrella)	Plant response rating, Barnyardgrass (barnyardgrass [2])	Plant response rating, Pigweed (pigweed; [9])	also measured
O=C1NCC(c2cccc(-n3cccn3)c2)C1C(=O)Nc1cccc(F)c1F (centres unmarked) [Compound 337]	0	0	0	0	0	50	0	20	0	0	0	0	0	0	0	0	0	0	0	0	Plant response rating, Ragweed (ragweed; [10]): 0; Plant response rating, Pigweed (pigweed; [10]): 0; Pigweed plant response rating (pigweed; [11]): 0; Plant response rating, Foxtail, Giant (giant foxtail; [5]): 0; Plant response rating, Foxtail, Giant (giant foxtail; [6]): 40; Plant response rating, Foxtail, Giant (giant foxtail; [7]): 0; Foxtail, Giant plant response rating (giant foxtail; [8]): 30; Plant response rating, Ducksalad (ducksalad): 0; Plant response rating, Blackgrass (blackgrass; [3]): 0; Plant response rating, Blackgrass (blackgrass; [4]): 0
O=C1NCC(c2ccc(Br)c(Br)c2)C1C(=O)Nc1cccc(F)c1F (centres unmarked) [Compound 341]	0	0	30	0	30	50	50	80	0	0	0	0	0	0	0	0	0	0	0	0	Plant response rating, Ragweed (ragweed; [10]): 0; Plant response rating, Pigweed (pigweed; [10]): 0; Pigweed plant response rating (pigweed; [11]): 0; Plant response rating, Foxtail, Giant (giant foxtail; [5]): 50; Plant response rating, Foxtail, Giant (giant foxtail; [6]): 70; Plant response rating, Foxtail, Giant (giant foxtail; [7]): 80; Foxtail, Giant plant response rating (giant foxtail; [8]): 90; Plant response rating, Ducksalad (ducksalad): 0; Plant response rating, Blackgrass (blackgrass; [3]): 0; Plant response rating, Blackgrass (blackgrass; [4]): 0
O=C1NCC(c2ccc(OC(F)F)cc2)C1C(=O)Nc1ccccc1C(F)(F)F (centres unmarked) [Compound 348]	0	0	0	0	20	50	30	60	0	0	0	0	20	0	70	0	30	0	40	0	Plant response rating, Pigweed (pigweed; [10]): 20; Pigweed plant response rating (pigweed; [11]): 50; Plant response rating, Foxtail, Giant (giant foxtail; [5]): 70; Plant response rating, Foxtail, Giant (giant foxtail; [6]): 90; Plant response rating, Foxtail, Giant (giant foxtail; [7]): 90; Foxtail, Giant plant response rating (giant foxtail; [8]): 90; Plant response rating, Ducksalad (ducksalad): 100; Plant response rating, Blackgrass (blackgrass; [3]): 20; Plant response rating, Blackgrass (blackgrass; [4]): 30
